Measured values taken from patent US20250326739A1, “CD38 MODULATORS AND USES THEREOF” (Aeovian Pharmaceuticals, Inc., priority 2022, published 2025).
pIC50: −log10 of the molar value.

What was measured:
human CD38 = human CD38 (Homo sapiens (Human), UniProt P28907); experiment: NAD+ cyclase activity assay with human recombinant CD38 protein; type: biochemical; details: 1.9 nM human CD38, 15.8 μM e-NAD substrate, fluorescence read-out
Method: (§1) Example 5: NAD^+ Cydase Activity Assay with Human or Mouse Recombinant CD38 Protein
(§2) The following assay was used to determine the ability of compounds of the invention to inhibit the hydrolysis of NAD^+ by the human or mouse enzyme, CD38.
(§3) Reaction buffer: 40 mM HEPES/NaOH pH 7.5, 250 mM sucrose, 0.01% Tween
(§4) Final concentrations: 0.6 nM mouse CD38 (4947-AC, Bio-Techne GmbH) 1.9 nM human CD38 (AVI2404, Bio-Techne GmbH)
(§5) Substrate: 15.8 μM Nicotinamide 1,N6-ethenoadenine dinucleotide (E-NAD)
(§6) Read-out: Fluorescence intensity (extinction 300 nm/emission 410 nm)
(§7) Required reaction buffer, required CD38 concentration in reaction buffer and required e-NAD concentration in reaction buffer were prepared. Thereafter, 8 μL of CD38 in reaction buffer were added to High Control and compound concentration wells in 384 well plate (Corning #4514, 384 well, nonbinding surface, low volume, round bottom) and 8 μL of reaction buffer to Low Control. Compound dilutions were transferred via pintool technology that transfers 42.5 nL compound dilutions (12-point dose-response with factor three dilutions in 100% DMSO) well-to-well. Plate was subsequently shaken for 15 s at 1450 rpm and sealed for incubation for 30 min at room temperature. Thereafter, 2 μL of e-NAD in reaction buffer were added with Integra Voyager. After shaking for 15 s at 1450 rpm, plate was sealed, and assay signal was measured continuously with PHERAstar® fluorescence intensity module (extinction 300 nm/emission 410 nm).
(§8) Dose-response curves were constructed using twelve-point factor three dilutions in triplicates per plate. High control (full enzyme activity) was set to assay signal of CD38 and e-NAD in presence of vehicle (DMSO) and Low control (full enzyme inhibition) was set to assay signal of e-NAD and vehicle (DMSO) in absence of CD38. For data analysis, fluorescent signal of traces corresponding to each compound concentration and High and Low control was monitored over time. Each run, High Control (full enzyme activity) was fitted to Linear equation via GraphPad Prism to determine CD38 activity from the slope and determine the time interval of linear phase of reaction to account for minor fluctuations. Thereafter, slopes of all compound concentrations were determined via fitting to same linear equation (GraphPad Prism) over the same time interval as determined for High control. Percentage inhibition was calculated via normalization to High and Low Control via the equation: %−inhibition=100*(1−((Sample−Low control)/(High control−Low control))) Half maximal inhibitory concentration (IC50) values are yielded from the inflection point of the corresponding curve by fitting of resulting percentage inhibition values to standard equation (4 Parameter Logistic Model or Sigmoidal Dose-Response Model) via Excel Fit. Unless otherwise stated, fitting of curves was fixed to 100%-inhibition and unlocked for 0%-inhibition.

mouse CD38 = mouse CD38 (Mus musculus (Mouse), UniProt P56528); experiment: NAD+ cyclase activity assay with mouse recombinant CD38 protein; type: biochemical; details: 0.6 nM mouse CD38, 15.8 μM e-NAD substrate, fluorescence read-out
Method: as §1, §2, §3, §4, §5, §6, §7, §8

Chain of human CD38 (P28907 whole entry): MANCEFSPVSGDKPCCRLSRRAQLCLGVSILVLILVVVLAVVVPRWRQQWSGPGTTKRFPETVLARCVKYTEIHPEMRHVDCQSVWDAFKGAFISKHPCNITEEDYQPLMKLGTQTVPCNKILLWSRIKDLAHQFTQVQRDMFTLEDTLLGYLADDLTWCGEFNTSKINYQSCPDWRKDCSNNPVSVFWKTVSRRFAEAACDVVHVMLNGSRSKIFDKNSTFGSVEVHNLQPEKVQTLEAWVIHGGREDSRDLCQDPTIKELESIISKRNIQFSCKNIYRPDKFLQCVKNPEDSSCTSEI
Chain of mouse CD38 (P56528 whole entry): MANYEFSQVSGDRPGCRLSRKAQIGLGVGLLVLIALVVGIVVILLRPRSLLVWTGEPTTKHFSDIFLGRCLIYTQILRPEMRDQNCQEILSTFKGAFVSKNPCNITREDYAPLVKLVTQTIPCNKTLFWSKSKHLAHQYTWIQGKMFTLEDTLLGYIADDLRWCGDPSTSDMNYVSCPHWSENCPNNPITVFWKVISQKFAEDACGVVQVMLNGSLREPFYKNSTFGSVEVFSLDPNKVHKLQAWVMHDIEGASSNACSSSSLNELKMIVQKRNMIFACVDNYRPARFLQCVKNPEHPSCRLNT

pIC50 (human CD38) | pIC50 (mouse CD38) | Compound
> 7.52 | > 9.00 | Cc1cc(C(=O)N[C@@H]2CCCOC2)nc(-n2ccnc2)n1 [Compound 69A, (R)-2-(1H-Imidazol-1-yl)-6-methyl-N-(tetrahydro-2H-pyran-3-yl)pyrimidine-4-carboxamide]
7.00 to 7.52 | 8.00 to 9.00 | Cc1cc(C(=O)N[C@H]2COCCC2(F)F)nc(-n2ccnc2)c1 [Compound 70A, (S)—N-(4,4-Difluorotetrahydro-2H-pyran-3-yl)-6-(1H-imidazol-1-yl)-4-methylpicolinamide]
7.00 to 7.52 | > 9.00 | Cc1cc(C(=O)N[C@@H]2COCCC2(F)F)nc(-n2ccnc2)c1 [Compound 71A, (R)—N-(4,4-Difluorotetrahydro-2H-pyran-3-yl)-6-(1H-imidazol-1-yl)-4-methylpicolinamide]
> 7.52 | > 9.00 | Cc1cc(C(=O)NC2CCN(S(=O)(=O)C3CCOC3)CC2)nc(-n2ccnc2)c1 (centres unmarked) [Compound 72A, 6-(1H-Imidazol-1-yl)-4-methyl-N-(1-((tetrahydrofuran-3-yl)sulfonyl)piperidin-4-yl)picolinamide]
> 7.52 | 8.00 to 9.00 | CS(=O)(=O)N1CCC(NC(=O)c2ccnc(-n3ccnc3)n2)CC1 [Compound 73A, 2-(1H-Imidazol-1-yl)-N-(1-(methylsulfonyl)piperidin-4-yl)pyrimidine-4-carboxamide]
> 7.52 | 8.00 to 9.00 | O=C(N[C@@H]1CCS(=O)(=O)C1)c1ccnc(-n2ccnc2)n1 [Compound 74A, (R)—N-(1,1-Dioxidotetrahydrothiophen-3-yl)-2-(1H-imidazol-1-yl)pyrimidine-4-carboxamide]
7.00 to 7.52 | 8.00 to 9.00 | CS(=O)(=O)N1CCC(NC(=O)c2cc(C(F)(F)F)nc(-n3ccnc3)n2)CC1 [Compound 75A, 2-(1H-Imidazol-1-yl)-N-(1-(methylsulfonyl)piperidin-4-yl)-6-(trifluoromethyl)pyrimidine-4-carboxamide]
7.00 to 7.52 | 8.00 to 9.00 | O=C(N[C@@H]1CCCOC1)c1cc(C(F)(F)F)nc(-n2ccnc2)n1 [Compound 76A, (R)-2-(1H-Imidazol-1-yl)-N-(tetrahydro-2H-pyran-3-yl)-6-(trifluoromethyl)pyrimidine-4-carboxamide]
7.00 to 7.52 | 8.00 to 9.00 | O=C(N[C@@H]1CCS(=O)(=O)C1)c1cc(C(F)(F)F)nc(-n2ccnc2)n1 [Compound 77A, (R)—N-(1,1-Dioxidotetrahydrothiophen-3-yl)-2-(1H-imidazol-1-yl)-6-(trifluoromethyl)pyrimidine-4-carboxamide]
> 7.52 | 8.00 to 9.00 | O=C(N[C@@H]1CCS(=O)(=O)C1)c1cc(C(F)(F)F)cc(-n2ccnc2)n1 [Compound 78A, (R)—N-(1,1-Dioxidotetrahydrothiophen-3-yl)-6-(1H-imidazol-1-yl)-4-(trifluoromethyl)picolinamide]
6.00 to 7.00 | 7.00 to 8.00 | Cc1ccc(-n2ccnc2)nc1C(=O)NC1CCN(S(C)(=O)=O)CC1 [Compound 79A, 6-(1H-Imidazol-1-yl)-3-methyl-N-(1-(methylsulfonyl)piperidin-4-yl)picolinamide]
> 7.52 | 8.00 to 9.00 | O=C(N[C@@H]1CCCOC1)c1ccnc(-n2ccnc2)n1 [Compound 80A, (R)-2-(1H-Imidazol-1-yl)-N-(tetrahydro-2H-pyran-3-yl)pyrimidine-4-carboxamide]
6.00 to 7.00 | 7.00 to 8.00 | Cc1ccc(-n2ccnc2)nc1C(=O)N[C@@H]1CCCOC1 [Compound 81A, (R)-6-(1H-Imidazol-1-yl)-3-methyl-N-(tetrahydro-2H-pyran-3-yl)picolinamide]
> 7.52 | 8.00 to 9.00 | CS(=O)(=O)N1CCC(NC(=O)c2cc(C(F)(F)F)cc(-n3ccnc3)n2)CC1 [Compound 82A, 6-(1H-Imidazol-1-yl)-N-(1-(methylsulfonyl)piperidin-4-yl)-4-(trifluoromethyl)picolinamide]
< 6.00 | 7.00 to 8.00 | Cc1cc(C(=O)N[C@@H]2CCCN(C3COC3)C2)nc(-n2ccnc2)c1 [Compound 83A, (R)-6-(1H-Imidazol-1-yl)-4-methyl-N-(1-(oxetan-3-yl)piperidin-3-yl)picolinamide]
6.00 to 7.00 | 7.00 to 8.00 | Cc1cc(C(=O)N[C@H]2CCCS(=O)(=O)C2)nc(-n2ccnc2)c1 [Compound 84A, (S)—N-(1,1-Dioxidotetrahydro-2H-thiopyran-3-yl)-6-(1H-imidazol-1-yl)-4-methylpicolinamide]
6.00 to 7.00 | 7.00 to 8.00 | Cc1cc(C(=O)N[C@H]2CCCN(C)C2=O)nc(-n2ccnc2)c1 [Compound 85A, (S)-6-(1H-Imidazol-1-yl)-4-methyl-N-(1-methyl-2-oxopiperidin-3-yl)picolinamide]
> 7.52 | 8.00 to 9.00 | Cc1cc(C(=O)N[C@@H]2CCS(=O)(=O)C2)nc(-n2ccnc2)c1 [Compound 86A, (R)—N-(1,1-Dioxidotetrahydrothiophen-3-yl)-6-(1H-imidazol-1-yl)-4-methylpicolinamide]
> 7.52 | 8.00 to 9.00 | Cc1cc(C(=O)NC2CCN(S(=O)(=O)C3COC3)CC2)nc(-n2ccnc2)c1 [Compound 87A, 6-(1H-Imidazol-1-yl)-4-methyl-N-(1-(oxetan-3-ylsulfonyl)piperidin-4-yl)picolinamide]
